Test results taken from PubChem BioAssay AID2305 (GlaxoSmithKline (GSK), 2010).
pIC50: −log10 of the molar value.

The molecules below were run on P. falciparum 3D7 growth, pLDH absorbance (assay: P. falciparum 3D7 growth inhibition, dose response, strain 3D7 (AID 2305)).
Molecule `CCC(=O)N[C@@H]1CN[C@@H](C#Cc2cc3c(Nc4ccc(OCc5cccc(F)c5)c(Cl)c4)ncnc3s2)C1` has a pIC50 of 5.95.
With `NCCCCc1c(-c2ccc(Cl)c(Cl)c2)[nH]c2ccc(Cl)cc12` the pIC50 was 6.04.
In the case of `COc1cc(NC(=O)c2cccs2)c(OC)cc1NC(=O)Nc1cccc(Cl)c1`, the pIC50 was 6.00.
`Cc1nn(CC(C)C)c2sc(C(=O)Nc3nc(-c4ccccn4)cs3)cc12` gave a pIC50 of 6.02.
`COc1ccc(CCN(C)CCOc2ccc(NC(=O)c3cccc4c(=O)c5cc(SC)ccc5[nH]c34)cc2)cc1OC` gave a pIC50 of 6.13.
Molecule `CC(=O)Nc1ccc2[nH]cc(C3CCN(CCC4CCN(C(=O)/C=C/c5ccc(Cl)c(Cl)c5)CC4)CC3)c2c1` has a pIC50 of 6.11.
`CN(C)CCn1c(=N)n(CC(O)c2ccc(Cl)c(Cl)c2)c2ccccc21` (stereo not given) was tested, and the pIC50 was 6.10.
Work on `CC(C)CCN(Cc1cncn1Cc1cccc(Cl)c1)C(=O)c1cncc(-c2ccccc2)c1` yielded a pIC50 of 6.12.
`COc1cc(NC(=O)c2cc([N+](=O)[O-])ccc2NC(=O)CNC2CCCCC2C)cc(OC)c1` (stereo not given) showed a pIC50 of 5.76.
For `COc1ccc2nccc([C@@H](O)CN3CCC(NCc4ccc(OC)c(NC=O)c4)CC3)c2c1`, the pIC50 was 6.12.
`CCCCOC(=O)c1ccc(Nc2cc(C)nc3ccc(OC)cc23)cc1` showed a pIC50 of 6.19.
`COc1cc(CNC[C@@H](O)[C@H](Cc2ccccc2)NC(=O)c2cc(C3CCCC3)cc(N3CCCS3(=O)=O)c2)cc(OC)c1` gave a pIC50 of 5.91.
`O=C(NCCCCN1CCC(c2ccc(C(F)(F)F)cc2C(F)(F)F)CC1)c1ccc(NC(=O)c2ccc(Cl)cc2)cc1` was tested, and the pIC50 was 6.21.
For `CNCCN(C)C(=O)Oc1c(Cl)c(C)nc(C)c1-c1ccc(Oc2ccc(OC(F)(F)F)cc2)cc1`, the pIC50 was 6.89.
`CN1CCN(Cc2c(O)ccc3c(=O)c(Oc4ccc(C(C)(C)C)cc4)c(C(F)(F)F)oc23)CC1` was tested, and the pIC50 was 6.09.
With `CCC[C@@H]([C@@H](Cc1ccc(C)s1)C(=O)N[C@@H](CNC(C)=O)C(=O)Nc1nccs1)N(O)C=O` the pIC50 was 6.74.
`O=C(NC1CCCCN(Cc2ccccc2O)C1)c1cccc(Cl)c1` (stereo not given) was tested, and the pIC50 was 5.97.
`O=C(/C=C/c1ccc(Cl)c(Cl)c1)NC1CCC(CN2CCC(c3c[nH]c4ccccc34)CC2)CC1` (stereo not given) showed a pIC50 of 6.64.
`CCN1CCC(N(Cc2ccc(-c3ccc(C(F)(F)F)cc3)cc2)C(=O)CCCCn2c(CCc3cccc(F)c3F)nc(=O)c3ccccc32)CC1` gave a pIC50 of 6.00.
Molecule `O=C(NCC1CCN(Cc2cccc(C(F)(F)F)c2)C1)c1cc(-c2cccc(C(F)(F)F)c2)cs1` (stereo not given) has a pIC50 of 6.21.
In the case of `O=C(/C=C/c1ccc(Cl)cc1)NCCCCCN1CCC(c2c[nH]c3ccccc23)CC1`, the pIC50 was 6.08.
`Cc1cccc(-n2nc(C)c3c2NC(=O)CC3C(=O)c2ccc(Cl)s2)c1` (stereo not given) gave a pIC50 of 6.33.
`COc1cc2ccccc2c(OC)c1CCNCCCCNCCc1c(OC)cc2ccccc2c1OC` gave a pIC50 of 6.05.
With `COc1c(OC)c(OC)c2ccccc2c1CNCCCCCCNCc1c(OC)c(OC)c(OC)c2ccccc12` the pIC50 was 6.12.
`CC(C)(C)c1nn(-c2ccccc2)c2[nH]c(=O)c(CNCc3ccc4c(c3)OCO4)cc12` was tested, and the pIC50 was 5.98.
Work on `COC(=O)c1cccc(CN(CCC(O)(C(F)(F)F)C(F)(F)F)C(=O)CC2CCCC2)c1` yielded a pIC50 of 6.04.
`O=C(NC1CCCCC1)N(Cc1cccc(-c2ccc(CNCc3ccc4c(c3)OCO4)cc2)c1)C1CCN(Cc2ccccc2)CC1` showed a pIC50 of 6.10.
`CCC(C)NS(=O)(=O)c1ccc2nc(Nc3ccc(C)cc3)n([C@H](C)C(C)(C)C)c2c1` (stereo not given in full) gave a pIC50 of 6.41.
For `COc1c(C2CCN(CCCCNC(=O)c3ccc(C)c(-c4ccc(C(F)(F)F)cc4)c3)CC2)ccc2c1CCCC2`, the pIC50 was 6.06.
Molecule `CC(C(=O)NC1CCN(c2ccnc(Nc3ccc(F)cc3)n2)C1)c1ccc(Cl)cc1` (stereo not given) has a pIC50 of 6.07.
With `O=C(/C=C/c1ccc(Cl)c(Cl)c1)NCCCCCN1CC[C@H](NC(=O)c2ccc3c(c2)OCO3)C1` the pIC50 was 6.03.
`CCc1ccc(NC(=O)c2cccc(CN3CCCN(Cc4ccc(OC)cc4)CC3)c2)cc1` was tested, and the pIC50 was 6.04.
`CCNC(=O)Nc1ccc(N(C)c2ccnc(Nc3ccc(CS(C)(=O)=O)cc3)n2)cc1` showed a pIC50 of 7.05.
`Oc1ccc(CN2CCC(NCc3cccc4ccccc34)CC2)cc1` was tested, and the pIC50 was 5.92.
`COc1c(C2CCN(CCCCNC(=O)c3ccc(-c4ccc(C(F)(F)F)cc4)c(C(=O)OC(C)C)c3)CC2)ccc2c1CCCC2` was tested, and the pIC50 was 6.07.
Molecule `Nc1ccc(-c2nc3cc(C4=N[C@H]5CCCC[C@H]5N4)ccc3o2)cc1[N+](=O)[O-]` has a pIC50 of 5.95.
`COc1ccccc1C(=O)N1CCN(Cc2cccs2)CC1` gave a pIC50 of 6.06.
In the case of `CC(C)(C)C(=O)Nc1ccccc1Oc1ccc(Cl)cc1`, the pIC50 was 8.00.
With `O=C(/C=C/c1ccc(Br)cc1)NCCCCCN1CCC(c2c[nH]c3ccccc23)CC1` the pIC50 was 6.14.
With `FC(F)(F)c1ccc2nc(-c3ccc(-c4ccc(CNCCN5CCNCC5)cc4)s3)[nH]c2c1` the pIC50 was 6.04.
`O=C(Nc1cccc(-c2ccc(-c3nc4ccc(F)cc4[nH]3)cc2)c1)c1csnn1` was tested, and the pIC50 was 6.55.
`COc1ccc(-c2ccccc2CNC2Cc3ccccc3C2)cc1S(=O)(=O)NCCN1CCCC1` was tested, and the pIC50 was 6.06.
For `COc1ccccc1Oc1c(N(C)S(=O)(=O)c2ccc(C(C)C)cc2)nc(C(F)(F)F)nc1N(C)S(=O)(=O)c1ccc(C(C)C)cc1`, the pIC50 was 6.07.
`O=C(Cc1cn(-c2ccccc2)nc1-c1ccc(Cl)cc1)Nc1nccs1` showed a pIC50 of 5.92.
Work on `CC(C)Cn1cc2c(ccc3nc(N)nc(N)c32)n1` yielded a pIC50 of 6.52.
For `O=S(=O)(Nc1ccc(CCN2CCC(N3CCCCC3)CC2)cc1)c1ccc(Cl)cc1`, the pIC50 was 5.96.
For `CN1CCC[C@@H](Oc2cc3c(cc2Br)CCN3C(=O)Nc2ccc(-c3ccncc3)c(Cl)c2)C1`, the pIC50 was 6.21.
`COc1ccc(NC(=O)Nc2ccc(Nc3nc(C)cc(N(C)C)n3)cc2)cc1` gave a pIC50 of 6.35.
`COc1ccccc1COc1c(C)nc(N)nc1N` showed a pIC50 of 6.15.
`O=C(c1cc(-c2ccco2)[nH]n1)N1CCN(S(=O)(=O)c2ccc(Cl)cc2)CC1` gave a pIC50 of 6.44.
In the case of `CC(C)(Cc1ccc(Cl)cc1)NCCCCCCNCCc1ccc(O)c(O)c1`, the pIC50 was 5.92.
In the case of `CN1c2ccccc2Sc2cc(CNCCSCCNCc3ccc4c(c3)Sc3ccccc3N4C)ccc21`, the pIC50 was 6.00.
For `Cc1[nH]c(C)c(-c2ccc(Oc3cc(Cl)cc(Cl)c3)cc2)c(=O)c1Br`, the pIC50 was 6.62.
For `Oc1cccc(CCNCCCCCCNCCc2ccc(Cl)cc2)c1`, the pIC50 was 6.11.
`COc1cc2nc(NCCc3ccccc3)nc(NCc3nccs3)c2cc1OC` was tested, and the pIC50 was 6.28.
Work on `O=C(Nc1ccc2c(c1)CCC2)N[C@H]1CCN(CCCCCNC(=O)[C@@H]2C[C@H]2c2ccc(Cl)c(Cl)c2)C1` yielded a pIC50 of 5.97.
`CC1CCCCC1N(C)C1CCN(CCCNC(=O)C=Cc2ccccc2Cl)CC1` (stereo not given) gave a pIC50 of 6.17.
Work on `C=C[C@]1(C)C[C@@H](OC(=O)CS[C@H]2CN3CC[C@H]2C3)[C@@]2(C)C3C(=O)CC[C@@]3(CC[C@H]2C)[C@@H](C)[C@@H]1O` (stereo not given in full) yielded a pIC50 of 6.16.
Work on `Cc1[nH]c(C)c(-c2ccc(-c3ccccc3C(F)(F)F)nc2)c(=O)c1Br` yielded a pIC50 of 6.77.
For `CN1CCCN(Cc2cccc(-c3cccc(NC(=O)c4cccc(Cl)c4)c3)c2)CC1`, the pIC50 was 6.05.
`CC1CCN(c2nc(C(=O)Nc3cccc4c3CCCC4)c(C(C)C)s2)CC1` was tested, and the pIC50 was 5.98.
With `CCc1cccc2sc(N3CCN(C(=O)c4ccc([N+](=O)[O-])o4)CC3)nc12` the pIC50 was 6.11.
Work on `C=C(C)C1CC=C(CN2CCC(N3CCc4cc(NC(=O)c5cc(C)on5)ccc43)C2)CC1` (stereo not given) yielded a pIC50 of 6.15.
For `CCc1c(CCNCCCCCCNCCc2ccc([N+](=O)[O-])cc2)ccc(OC)c1OC`, the pIC50 was 6.14.
`CCc1ccc(-c2nc3cc(NC(=O)c4cc([N+](=O)[O-])cc([N+](=O)[O-])c4)ccc3o2)cc1` was tested, and the pIC50 was 6.03.
`Cc1cc(N2CCN(C)CC2)nc2ccc(NC(=O)Cc3cccc(C(F)(F)F)c3)cc12` gave a pIC50 of 6.13.
`CCCCCCc1cc(Oc2c(I)cc(C[C@H](N)C(=O)O)cc2I)ccc1O` was tested, and the pIC50 was 6.04.
`COc1cccc(-c2ccc(C(=O)NC3CCN(Cc4ccc(C(C)(C)C)cc4)CC3)s2)c1` showed a pIC50 of 5.80.
`O=C(NCCNc1noc(-c2sccc2Br)n1)c1ccc(Cl)cc1` showed a pIC50 of 5.93.
With `CCC(Nc1noc(-c2c(-c3ccccc3)noc2C)n1)c1ccccc1` (stereo not given) the pIC50 was 6.01.
For `O=C(N[C@H]1CCN(Cc2ccc(OCCN3CCNCC3)c(Br)c2)C1)c1ccc(Cl)c(Cl)c1`, the pIC50 was 6.32.
With `Cc1[nH]c2ccccc2c1C=NNc1nc(Nc2ccccc2)nc(Nc2ccccc2)n1` the pIC50 was 6.03.
Molecule `CCn1c(Cc2ccccc2)nnc1Sc1ccc([N+](=O)[O-])c(C#N)c1` has a pIC50 of 6.00.
Work on `CNC(=O)c1ccccc1Nc1nc(Nc2ccc(CCN3CCN(C)CC3)cc2)ncc1Cl` yielded a pIC50 of 6.19.
With `CNCC(O)c1cc(Cl)c(Cl)cc1C` (stereo not given) the pIC50 was 6.04.
For `CN1CCC(O)(c2ccc(Br)cc2)C(C(O)c2ccc(Br)cc2)C1` (stereo not given), the pIC50 was 6.14.
`CC(=O)Nc1ccc(C(=O)Nc2cccc(-c3ccc(-c4nc5ccc(F)cc5[nH]4)s3)c2)cn1` gave a pIC50 of 6.64.
In the case of `CCN(CC)CCOc1c(Cl)cc(Cl)cc1CNCCCNc1cc(=O)c2ccccc2[nH]1`, the pIC50 was 6.06.
`Cc1ccc(NC(=O)C2CCC2)cc1-c1ccc(C(=O)NCC2CC2)cc1` showed a pIC50 of 6.13.
For `CC(C)CCCC(C)(C)NC[C@@H](O)[C@H](Cc1ccccc1)NC(=O)c1cc(NC(C)C)cc(N2CCCCS2(=O)=O)c1`, the pIC50 was 6.68.
`C=CCn1c(Cc2ccccc2)nnc1Sc1ccc(C#N)c([N+](=O)[O-])c1` showed a pIC50 of 5.99.
`CCCCCCCCc1c(C)[nH]c(C)c(Br)c1=O` gave a pIC50 of 6.09.
For `CN(C(=O)Nc1ccc(C(F)(F)F)cc1)C1CCN(CCCCCNC(=O)/C=C/c2ccc(Cl)c(Cl)c2)CC1`, the pIC50 was 6.48.
Work on `Cc1c(C(=O)NC2CCC(CN3CCC(c4c[nH]c5ccccc45)CC3)CC2)cnn1-c1c(Cl)cc(Cl)cc1Cl` (stereo not given) yielded a pIC50 of 6.15.
`COC(=O)c1cccc(N2CCN(CCCNC(=O)/C(=C/C=C/c3cc4cc(Cl)c(Cl)cc4[nH]3)OC)CC2)c1` was tested, and the pIC50 was 6.17.
`CCCN(CCC)CCCN(CCCN(CCC)CCC)c1cc(C)nc(Nc2ccc(Cl)cc2)n1` was tested, and the pIC50 was 6.77.
`Cc1cc(C)c2oc(-c3cccc(NC(=O)c4ccc([N+](=O)[O-])o4)c3C)nc2c1` was tested, and the pIC50 was 5.94.
For `CCC(C)(C)c1ccc(OCCCC(=O)Nc2ccc(Cl)c([N+](=O)[O-])c2)c(C(C)(C)CC)c1`, the pIC50 was 6.01.
`CCNC(=O)Nc1ccc(-c2ccc(-c3nc4c(C)cccc4[nH]3)s2)cc1` showed a pIC50 of 5.97.
`O=[N+]([O-])c1cc(C=NNc2nc3nonc3nc2Nc2ccc(F)cc2)c(Cl)cc1Cl` showed a pIC50 of 6.12.
`CN(C)CCOc1cc(NC(=O)Nc2ccc(-c3ccncc3)c(C(F)(F)F)c2)ccc1Cl` was tested, and the pIC50 was 6.00.
In the case of `Cc1cccc2[nH]c(-c3cccc(-c4cccc(CNCCc5cccn5C)c4)c3)nc12`, the pIC50 was 6.14.
Work on `Cc1cccc2[nH]c(-c3ccc(-c4ccc(NC(=O)Nc5ccc(Cl)c(Cl)c5)cc4)cc3)nc12` yielded a pIC50 of 6.08.
With `Cc1sc(CNCCCNc2cc(=O)c3ccccc3[nH]2)c(C(F)(F)F)c1C` the pIC50 was 6.14.
In the case of `CC(CN(C)C)C(=O)Nc1ccc(-c2csc(-c3nc4ccccc4[nH]3)c2)cc1` (stereo not given), the pIC50 was 5.88.
